This is an account of results in article PMC12589586, “Targeting TAZ-TEAD in minimal residual disease enhances the duration of targeted therapy in melanoma models” (Nature Communications, 2025).

Molecules are shown by their SMILES.

The target of test [1] is T1, TEAD4 (Mus musculus, UniProt Q62296).
T1 construct: FLAG-tagged mTEAD4, depalmitoylated
The experiment in a line: protein thermal shift assay (delta Tm); no binding to palmitoylated TEAD4.

Test [2] concerns the target T2, TEAD1 (Homo sapiens, UniProt P28347). The experiment in a line: protein thermal shift assay (delta Tm). It counts as binding. Also on record: FLAG-tagged hTEAD1, depalmitoylated.
Test [3] deals with T2, TEAD1. Description: co-crystal structure ([…] Å); also protein thermal shift. The test is classed as binding. Also on record: FLAG-tagged hTEAD1, depalmitoylated (thermal shift).

T2 sequence (P28347 whole entry): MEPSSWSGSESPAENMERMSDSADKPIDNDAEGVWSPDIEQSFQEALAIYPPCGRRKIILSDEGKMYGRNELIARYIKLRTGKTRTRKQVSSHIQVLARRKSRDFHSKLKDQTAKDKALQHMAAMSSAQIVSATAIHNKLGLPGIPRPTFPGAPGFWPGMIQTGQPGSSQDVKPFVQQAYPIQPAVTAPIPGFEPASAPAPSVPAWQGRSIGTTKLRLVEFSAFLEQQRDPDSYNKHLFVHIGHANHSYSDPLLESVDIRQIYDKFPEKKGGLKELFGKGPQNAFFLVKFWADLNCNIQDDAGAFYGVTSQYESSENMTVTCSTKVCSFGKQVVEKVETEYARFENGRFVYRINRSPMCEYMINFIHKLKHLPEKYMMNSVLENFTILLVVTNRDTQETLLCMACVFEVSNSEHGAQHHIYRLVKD
T1 sequence (Q62296 whole entry): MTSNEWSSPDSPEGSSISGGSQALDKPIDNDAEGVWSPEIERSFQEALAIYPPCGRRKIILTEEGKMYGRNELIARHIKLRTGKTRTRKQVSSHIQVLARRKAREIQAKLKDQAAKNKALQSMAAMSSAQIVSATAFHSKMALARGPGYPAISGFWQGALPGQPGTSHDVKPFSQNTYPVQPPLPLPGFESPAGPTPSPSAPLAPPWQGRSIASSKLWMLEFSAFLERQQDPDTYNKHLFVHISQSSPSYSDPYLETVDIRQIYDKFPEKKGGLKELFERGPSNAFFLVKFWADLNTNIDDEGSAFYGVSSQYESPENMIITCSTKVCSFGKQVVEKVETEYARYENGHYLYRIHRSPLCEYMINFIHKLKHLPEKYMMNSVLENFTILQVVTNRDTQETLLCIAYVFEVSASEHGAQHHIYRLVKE

`C=CC(=O)N1CCc2ccc(Oc3ccc(C(F)(F)F)cc3)cc2C1` [OPN-9643, 1-(7-(4-(trifluoromethyl)phenoxy)-3,4-dihydroisoquinolin-2(1H)-yl)prop-2-en-1-one]: in test [1], the “protein thermal shift assay (delta Tm); no binding to palmitoylated TEAD4” value is “Incubation of these compounds with depalmitoylated TEAD4 resulted in significant Tm shifts, indicating binding and stabilization of target proteins”. In addition, in test [2], the “protein thermal shift assay (delta Tm)” value is “protein thermal shift analysis and confirmed the binding of both compounds to depalmitoylated TEAD1 and TEAD4 proteins”.

On to `C=CC(=O)N1CCc2ccc(Oc3ccc(C(F)(F)F)c(F)c3)cc2C1` [OPN-9652, 1-(7-(3-fluoro-4-(trifluoromethyl)phenoxy)-3,4-dihydroisoquinolin-2(1H)-yl)prop-2-en-1-one], for which, in test [1], the “protein thermal shift assay (delta Tm); no binding to palmitoylated TEAD4” value was “Incubation of these compounds with depalmitoylated TEAD4 resulted in significant Tm shifts, indicating binding and stabilization of target proteins”. Besides, the “co-crystal structure (2.03 Å); also protein thermal shift” value in test [3] was “OPN-9652 occupies the central palmitate-binding pocket and covalently modifies Cys359”.
